Consider 34 compounds from patent publication US10266526B2, “Substituted 1,2,3-triazoles as SMYD inhibitors for treating cancer” (EPIZYME, INC., priority 2014, dated 2019).

Broadly, the IC50 is the point on the concentration scale where inhibition reaches its midpoint.

SMYD3, sequence (Q9H7B4 whole entry): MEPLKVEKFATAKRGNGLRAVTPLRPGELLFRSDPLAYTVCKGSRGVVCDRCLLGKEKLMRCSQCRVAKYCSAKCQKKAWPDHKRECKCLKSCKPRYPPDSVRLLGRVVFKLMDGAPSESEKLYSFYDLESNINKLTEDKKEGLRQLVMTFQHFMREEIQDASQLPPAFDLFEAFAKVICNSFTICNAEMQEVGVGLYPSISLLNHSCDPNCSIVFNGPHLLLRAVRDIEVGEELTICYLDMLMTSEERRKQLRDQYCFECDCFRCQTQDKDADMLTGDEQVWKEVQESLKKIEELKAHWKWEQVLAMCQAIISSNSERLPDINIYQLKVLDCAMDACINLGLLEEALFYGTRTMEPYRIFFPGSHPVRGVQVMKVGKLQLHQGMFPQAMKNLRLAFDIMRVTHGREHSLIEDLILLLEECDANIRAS

This assay concerns the target SMYD3 (Homo sapiens (Human), UniProt Q9H7B4). As to the kind of experiment: SMYD3 biochemical assay (SMYD3 enzyme assay on MEKK2 protein substrate, 3H-SAM scintillation proximity assay). The note with it: read-out: SMYD3 Biochem IC50 (μM)*. An excerpt: S-adenosylmethionine (SAM), S-adenosylhomocysteine (SAH), Tris, Tween20, dimethylsulfoxide (DMSO), bovine skin gelatin (BSG), and Tris(2-carboxyethyl)phosphine hydrochloride solution (TCEP) were purchased from Sigma-Aldrich at the highest level of purity possible. ^3H-SAM was purchase from American Radiolabeled Chemicals with a specific activity of 80 Ci/mmol. 384-well opaque white OptiPlates and SPA beads (Perkin Elmer, catalog # RPNQ0013) were purchased from PerkinElmer.
N-terminally GST-tagged MEKK2 (MAP3K2) protein corresponding to reference sequence AAF63496.3 was purchased from Life Technologies (catalog # PV4010). This protein was expressed in High Five insect cells and purified to >85% purity. Protein identity was confirmed by MS/MS analysis after proteolytic digestion. The protein sequence used was:
Full-length human SMYD3 isoform 1 (BAB86333) was inserted into a modified pET21b plasmid containing a His6 tag and TEV and SUMO cleavage sites.
E. coli (BL21 codonplus RIL strain, Stratagene) were transformed with plasmid pEPZ553 by mixing competent cells and plasmid DNA and incubating on ice for 30 minutes followed by heat shock at 42° C. for 1 minute and cooling on ice for 2 minutes. Transformed cells were grown and selected on LB agar with 100 μg/mL ampicillin and 17 μg/mL chloramphenicol at 37° C. overnight. A single clone was used to inoculate 200 mL of LB medium with 100 μg/mL ampicillin and 17 μg/mL chloramphenicol and incubated at 37° C. on an orbital shaker at 180 rpm. Once in log growth, the culture was diluted 1:100 into 2 L of LB medium and grown until OD600 was about 0.3 after which the culture was incubated at 15° C. and 160 rpm. Once OD600 reached about 0.4, IPTG was added to a final concentration of 0.1 mM and the cells were grown overnight at 15° C. and 160 rpm. Cells were harvested by centrifugation at 8000 rpm, for 4 minutes at 4° C. and stored at −80° C. for purification.
The column was washed with Buffer B (Buffer A plus 20 mM imidazole) and His-tagged SMYD3 was eluted with Buffer C (Buffer A plus 300 mM imidazole). The His tag, TEV and SUMO cleavage sites were removed generating native SMYD3 by addition of ULP1 protein at a ratio of 1:200 (ULP1:SMYD3). Imidazole was removed by dialysis overnight in Buffer A. The dialyzed solution was applied to a second Nickel column and the native SMYD3 protein was collected from the column flow-through. The flow-through was dialyzed in Buffer D (25 mM Tris, 5% glycerol, 5 mM β-mercaptoethanol, 50 mM NaCl, pH7.8) and ULP1 was removed using a Q sepharose fast flow column.
General Procedure for SMYD3 Enzyme Assays on MEKK2 Protein Substrate
The assays were all performed in a buffer consisting of 25 mM Tris-Cl pH 8.0, 1 mM TCEP, 0.005% BSG, and 0.005% Tween 20, prepared on the day of use. […] DMSO (1 ul) was added to Columns 11, 12, 23, 24, rows A-H for the maximum signal control and 1 ul of SAH, a known product and inhibitor of SMYD3, was added to columns 11, 12, 23, 24, rows I-P for the minimum signal control. A cocktail (40 ul) containing the SMYD3 enzyme was added by Multidrop Combi (Thermo-Fisher). The compounds were allowed to incubate with SMYD3 for 30 min at room temperature, then a cocktail (10 ul) containing SAM and MEKK2 was added to initiate the reaction (final volume=51 ul). […] The assays were stopped by the addition of non-radiolabeled SAM (10 ul) to a final concentration of 100 uM, which dilutes the ^3H-SAM to a level where its incorporation into MEKK2 is no longer detectable. Radiolabeled MEKK2 was detected using a scintillation proximity assay (SPA). 10 uL of a 10 mg/mL solution of SPA beads in 0.5 M citric acid was added and the plates centrifuged at 600 rpm for 1 min to precipitate the radiolabeled MEKK2 onto the SPA beads.
Take `CCc1cc(C(=O)N[C@H]2CC[C@H](N)CC2)ns1` [compound 17, N-((1r,4r)-4-aminocyclohexyl)-5-ethylisothiazole-3-carboxamide]: the IC50 was found to be 13.5 µM.

As for `CCc1ccc(C(=O)N[C@H]2CC[C@H](N)CC2)cc1` [compound 18, N-((1r,4r)-4-aminocyclohexyl)-4-ethylbenzamide], the IC50 came to 125 µM.

As to `N[C@H]1CC[C@H](NC(=O)c2ccc3c(c2)OCC(=O)N3)CC1` [compound 19, N-((1r,4r)-4-aminocyclohexyl)-3-oxo-3,4-dihydro-2H-benzo[b][1,4]oxazine-7-carboxamide], the IC50 worked out at 102 µM.

`N[C@H]1CC[C@H](NC(=O)c2ccc3c(c2)NC(=O)CO3)CC1` [compound 20, N-((1r,4r)-4-aminocyclohexyl)-3-oxo-3,4-dihydro-2H-benzo[b][1,4]oxazine-6-carboxamide]: the IC50 turned out to be 16 µM.

For `CCc1cccc(C(=O)N[C@H]2CC[C@H](N)CC2)c1` [compound 21, N-((1r,4r)-4-aminocyclohexyl)-3-ethylbenzamide], the IC50 came out at 57.5 µM.

`CCc1cncc(C(=O)N[C@H]2CC[C@H](N)CC2)c1` [compound 22, N-((1r,4r)-4-aminocyclohexyl)-5-ethylnicotinamide]: the IC50 was 31.3 µM.

Consider `CC(=O)c1cccc(C(=O)N[C@H]2CC[C@H](N)CC2)c1` [compound 23, 3-acetyl-N-((1r,4r)-4-aminocyclohexyl)benzamide], for which the IC50 amounted to 91.5 µM.

Consider `CC(=O)Nc1cccc(C(=O)N[C@H]2CC[C@H](N)CC2)c1` [compound 24, 3-acetamido-N-((1r,4r)-4-aminocyclohexyl)benzamide], for which the IC50 is 80.3 µM.

Consider `CCC(=O)Nc1cccc(C(=O)N[C@H]2CC[C@H](N)CC2)c1` [compound 25, N-((1r,4r)-4-aminocyclohexyl)-3-propionamidobenzamide], for which the IC50 was found to be 84.3 µM.

`N[C@H]1CC[C@H](NC(=O)c2cccc(CO)c2)CC1` [compound 26, N-((1r,4r)-4-aminocyclohexyl)-3-(hydroxymethyl)benzamide]: the IC50 turned out to be 86 µM.

Regarding `CCn1nc(C)cc1C(=O)N[C@H]1CC[C@H](N)CC1` [compound 27, N-((1r,4r)-4-aminocyclohexyl)-1-ethyl-3-methyl-1H-pyrazole-5-carboxamide], the IC50 stood at 102 µM.

As to `Cc1cc(C(=O)N[C@H]2CC[C@H](N)CC2)n(-c2ccccc2)n1` [compound 28, N-((1r,4r)-4-aminocyclohexyl)-3-methyl-1-phenyl-1H-pyrazole-5-carboxamide], the IC50 was 111 µM.

`CCn1nc(C)cc1C(=O)NC(c1ccccc1)C1CCNCC1` (stereo not shown) [compound 30, 1-ethyl-3-methyl-N-(phenyl(piperidin-4-yl)methyl)-1H-pyrazole-5-carboxamide]: the IC50 is 69.2 µM.

For the compound `Cc1cc(C(=O)NC(c2ccccc2)C2CCNCC2)n(-c2ccccc2)n1` (stereo not shown) [compound 31, 3-methyl-1-phenyl-N-(phenyl(piperidin-4-yl)methyl)-1H-pyrazole-5-carboxamide], the IC50 stood at 56.7 µM.

Turning to `Cc1cc(C(=O)NC(c2ccccc2)C2CCNCC2)n(Cc2ccccc2)n1` (stereo not shown) [compound 32, 1-benzyl-3-methyl-N-(phenyl(piperidin-4-yl)methyl)-1H-pyrazole-5-carboxamide], the half-maximal inhibitory concentration (IC50) is 91.3 µM.

Consider `CCc1cc(C(=O)N[C@H]2CC[C@H](N)CC2)n(C)n1` [compound 37, N-((1r,4r)-4-aminocyclohexyl)-3-ethyl-1-methyl-1H-pyrazole-5-carboxamide], for which the IC50 came to 59.9 µM.

As to `CCc1ccnc(C(=O)N[C@H]2CC[C@H](N)CC2)c1` [compound 38, N-((1r,4r)-4-aminocyclohexyl)-4-ethylpicolinamide], the IC50 turned out to be 20.5 µM.

On to `O=C1CNc2cc(C(=O)NC3CCNCC3)ccc2N1` [compound 39, 2-oxo-N-(piperidin-4-yl)-1,2,3,4-tetrahydroquinoxaline-6-carboxamide], for which the IC50 was 23.9 µM.

With `N[C@H]1CC[C@H](NC(=O)c2ccc3c(c2)CC(=O)N3)CC1` [compound 40, N-((1r,4r)-4-aminocyclohexyl)-2-oxoindoline-5-carboxamide], the 50% inhibitory concentration (IC50) was 2.84 µM.

`N[C@H]1CC[C@H](NC(=O)c2ccc3c(c2)CC(=O)N3)CC1` [compound 42, N-((1r,4r)-4-aminocyclohexyl)-2-oxoindoline-5-carboxamide]: the IC50 was 3.31 µM.

On to `N[C@H]1CC[C@H](NC(=O)c2ccc3nc(O)cnc3c2)CC1` [compound 43, N-((1r,4r)-4-aminocyclohexyl)-2-hydroxyquinoxaline-6-carboxamide], for which the IC50 was 60.4 µM.

In the case of `O=C1Cc2cc(C(=O)NC(c3ccccc3)C3CCNCC3)ccc2N1` (stereo not shown) [compound 44, 2-oxo-N-(phenyl(piperidin-4-yl)methyl)indoline-5-carboxamide], the IC50 turned out to be 14.1 µM.

For `Nc1cc(C(=O)NC(c2ccccc2)C2CCNCC2)n[nH]1` (stereo not shown) [compound 45, 5-amino-N-(phenyl(piperidin-4-yl)methyl)-1H-pyrazole-3-carboxamide], the IC50 amounted to 137 µM.

Consider `O=C(NC1CCNCC1)c1ccc2ncc(=O)[nH]c2c1` [compound 46, 3-oxo-N-(piperidin-4-yl)-3,4-dihydroquinoxaline-6-carboxamide], for which the half-inhibitory concentration (IC50) turned out to be 63.7 µM.

As for `N[C@H]1CC[C@H](NC(=O)c2cnc3c(c2)CC(=O)N3)CC1` [compound 47, N-((1r,4r)-4-aminocyclohexyl)-2-oxo-2,3-dihydro-1H-pyrrolo[2,3-b]pyridine-5-carboxamide], the IC50 was 11.9 µM.

Turning to `Cn1nc(N)cc1C(=O)N[C@H]1CC[C@H](N)CC1` [compound 48, 3-amino-N-((1r,4r)-4-aminocyclohexyl)-1-methyl-1H-pyrazole-5-carboxamide], the IC50 was 117 µM.

In the case of `N[C@@H](Cc1ccc(O)cc1)C(=O)N1CCC(NC(=O)c2ccc3c(c2)CC(=O)N3)CC1` [compound 49, N-(1-(L-tyrosyl)piperidin-4-yl)-2-oxoindoline-5-carboxamide], the IC50 was determined as 0.86 µM.

Consider `N[C@@H](Cc1c[nH]c2ccccc12)C(=O)N1CCC(NC(=O)c2ccc3c(c2)CC(=O)N3)CC1` [compound 51, N-(1-(L-tryptophyl)piperidin-4-yl)-2-oxoindoline-5-carboxamide], for which the IC50 stood at 0.69 µM.

With `CCC(=O)c1c[nH]c(C(=O)Nc2ccc(CN)cc2)c1` [compound 52, N-(4-(aminomethyl)phenyl)-4-propionyl-1H-pyrrole-2-carboxamide], the IC50 is 108 µM.

For the compound `CCCCC1CC1C(=O)N[C@H]1CC[C@H](N)CC1` (stereo partly shown) [compound 53, N-((1r,4r)-4-aminocyclohexyl)-2-butylcyclopropane-1-carboxamide], the IC50 stood at 122 µM.

Regarding `CCc1ccc(C(=O)N[C@H]2CC[C@H](N)CC2)s1` [compound 54, N-((1r,4r)-4-aminocyclohexyl)-5-ethylthiophene-2-carboxamide], the IC50 turned out to be 49.9 µM.

With `CCc1ccc(C(=O)NC(c2ccccc2)C2CCNCC2)s1` (stereo not shown) [compound 55, 5-ethyl-N-(phenyl(piperidin-4-yl)methyl)thiophene-2-carboxamide], the IC50 is 116 µM.

On to `CCc1ccc(C(=O)Nc2ccc(CN)cc2)s1` [compound 56, N-(4-(aminomethyl)phenyl)-5-ethylthiophene-2-carboxamide], for which the IC50 came to 138 µM.

On to `Cc1cc2[nH]c(C(=O)N[C@H]3CC[C@H](N)CC3)cc2o1` [compound 57, N-((1r,4r)-4-aminocyclohexyl)-2-methyl-4H-furo[3,2-b]pyrrole-5-carboxamide], for which the IC50 is 134 µM.
